The target of series [1] is T1, OCT2 (Homo sapiens, UniProt O15244).
T1 construct: expressed in transfected cells; host or cells: HEK293
T1 sequence (O15244 1-555): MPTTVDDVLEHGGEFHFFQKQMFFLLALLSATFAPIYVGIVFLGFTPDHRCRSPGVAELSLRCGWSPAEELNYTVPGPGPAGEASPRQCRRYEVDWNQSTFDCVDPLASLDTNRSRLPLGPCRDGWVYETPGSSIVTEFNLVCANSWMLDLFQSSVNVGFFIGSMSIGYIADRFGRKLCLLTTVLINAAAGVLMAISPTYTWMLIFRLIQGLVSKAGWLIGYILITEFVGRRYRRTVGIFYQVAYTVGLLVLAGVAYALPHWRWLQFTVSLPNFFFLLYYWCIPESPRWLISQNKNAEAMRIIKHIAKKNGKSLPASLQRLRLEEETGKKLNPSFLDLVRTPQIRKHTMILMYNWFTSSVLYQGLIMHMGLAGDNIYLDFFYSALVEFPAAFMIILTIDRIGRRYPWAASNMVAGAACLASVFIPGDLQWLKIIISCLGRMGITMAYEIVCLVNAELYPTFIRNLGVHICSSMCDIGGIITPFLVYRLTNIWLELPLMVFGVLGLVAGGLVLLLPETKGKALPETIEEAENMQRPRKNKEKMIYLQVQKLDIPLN
Nature of the series: Uptake of amanitins into HEK293-OCT2 cells. The settings on record: 50 μM amanitin, 5 min, 37 °C, HBSS, 20 min preincubation, with and without cimetidine, LC-HRMS, n = 3. It is filed as in vitro ADME. The method, then:
(§1) HEK293 cells overexpressing OCT2, MATE2-K, OAT1, OAT3, OATP1B1, and OATP1B3 transporters and HEK293-control cells were maintained in a humidified atmosphere of 5% CO2 at 37 °C in DMEM supplemented with 10% FBS and 5 mM non-essential amino acids. In the case of HEK293-OATP1B1, -OATP1B3, and MATE2-K cells, 2 mM sodium butyrate was added to the culture medium to enhance transport activity. Cells were seeded at 2 × 10^5 cells/well in poly-D-lysine-coated 24-well plates. After 24 h, the growth medium was discarded, and attached cells were washed with HBSS and preincubated for 20 min in HBSS at 37 °C. Stock solutions of α- and β-amanitin and representative inhibitors of transporters were diluted in HBSS to make the final concentration: cimetidine 1 mM (for OCT2), cimetidine 100 μM (for MATE2-K), probenecid 100 μM (for OAT1 and OAT3), and rifampin 100 μM (for OATP1B1 and OATP1B3). Uptake of 50 μM α- and β-amanitin was measured in the absence and presence of representative inhibitors for 5 min at 37 °C. Plates were placed immediately on ice, and cells were then washed twice with 1 mL of ice-cold HBSS. Residual HBSS was removed thoroughly from the plates. Subsequently, 150 μL of 80% methanol containing IS was added to each sample well, and the cell plates were shaken gently for 20 min at 4 °C. The remaining steps were the same as described for plasma sample preparation.

For series [2] the following is noted: humans, cited from earlier work; for Concentration in the kidney of amatoxin-intoxicated patients / Concentration in the liver of amatoxin-intoxicated patients: 4 cases; for Plasma concentrations in amatoxin-intoxicated patients: detected in 11 of 43 patients exposed within 36 h; for Total amount excreted in urine in amatoxin-intoxicated patients: measured in 24 patients out of 35 cases. The method, then: In humans, the plasma and urinary concentrations of α- and β-amanitin were detected in cases of suspected amatoxin poisoning. Among 43 amatoxin-intoxicated patients, amanitin was detected in 11 patients who were exposed to amatoxin within 36 h. The plasma concentrations were 8–190 ng/mL for α-amanitin and 15.9–162 ng/mL for β-amanitin [26]. The total amount of α- and β-amanitin excreted in urine were measured in 24 patients out of 35 cases, and a highly variable amount of α- and β-amanitin was recovered from the urine: 0.03–3.29 mg for α-amanitin and 0.05–5.21 mg for β-amani ... || The intestinal tract, liver, and kidney are vulnerable to amanitin toxicity and also express drug-metabolizing enzymes and transporters that regulate the absorption, distribution, metabolism, and excretion of endogenous substrates and xenobiotics. […] Inhibition of CYP1A2, CYP2C8, CYP2C9, CYP2C19, and CYP3A4 at 100 μM in HLMs was almos ...

The target of series [3] is MATE2-K (Homo sapiens, UniProt Q86VL8). As to the kind of experiment: Uptake of amanitins into HEK293-MATE2-K cells. It counts as in vitro ADME. Set-up: expressed in transfected cells; host or cells: HEK293. The settings on record: 50 μM amanitin, 5 min, 37 °C, HBSS, 20 min preincubation, with and without cimetidine 100 μM, LC-HRMS, n = 3. How it is done: as §1
For series [4] the following is noted: oral administration of dried powder of Amanita exitialis 60 mg/kg; cited from earlier work. The method, then: In addition, bile drainage caused more than a 70% reduction in plasma concentration of α- and β-amanitin and reduced hepatic toxicity following the oral administration of dried powder of Amanita exitialis (60 mg/kg). […] However, the toxicokinetics and tissue distribution of β-amanitin (Figure 1) upon ex ...

In series [5] the target is T2, OAT1 (Homo sapiens, UniProt Q4U2R8).
T2 construct: expressed in transfected cells; host or cells: HEK293
T2 sequence (Q4U2R8 1-563): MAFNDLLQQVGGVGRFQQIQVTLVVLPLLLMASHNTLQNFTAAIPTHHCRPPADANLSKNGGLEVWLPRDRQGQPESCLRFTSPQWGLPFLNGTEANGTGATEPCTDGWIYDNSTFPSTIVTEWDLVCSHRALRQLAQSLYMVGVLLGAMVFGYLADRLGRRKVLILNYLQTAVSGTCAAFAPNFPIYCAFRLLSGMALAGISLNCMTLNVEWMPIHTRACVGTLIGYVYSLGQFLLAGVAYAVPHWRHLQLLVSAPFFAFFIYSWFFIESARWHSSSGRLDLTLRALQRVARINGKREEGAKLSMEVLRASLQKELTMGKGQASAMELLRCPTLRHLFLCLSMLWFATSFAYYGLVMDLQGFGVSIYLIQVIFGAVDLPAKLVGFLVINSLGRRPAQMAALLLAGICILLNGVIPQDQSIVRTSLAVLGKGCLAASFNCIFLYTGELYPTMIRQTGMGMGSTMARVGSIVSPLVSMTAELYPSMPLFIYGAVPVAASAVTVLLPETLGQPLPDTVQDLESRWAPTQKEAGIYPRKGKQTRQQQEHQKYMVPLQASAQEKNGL
As to the kind of experiment: Uptake of amanitins into HEK293-OAT1 cells. It counts as in vitro ADME. The note with it: 50 μM amanitin, 5 min, 37 °C, HBSS, 20 min preincubation, with and without probenecid, LC-HRMS, n = 3. How it is done:
as §1

Series [6] has as its target T3, OATP1B1 (Homo sapiens, UniProt Q9Y6L6).
T3 construct: expressed in transfected cells; host or cells: HEK293
As to the kind of experiment: Uptake of amanitins into HEK293-OATP1B1 cells. It is filed as in vitro ADME. The note with it: 50 μM amanitin, 5 min, 37 °C, HBSS, 20 min preincubation, with and without rifampin 100 μM, LC-HRMS, n = 3. How it is done: as §1

Series [7] deals with T4, OATP1B3 (Homo sapiens, UniProt Q9NPD5).
T4 construct: expressed in transfected cells; host or cells: HEK293
Nature of the series: Uptake of amanitins into HEK293-OATP1B3 cells. It is filed as in vitro ADME. The note with it: 50 μM amanitin, 5 min, 37 °C, HBSS, 20 min preincubation, with and without rifampin 100 μM, LC-HRMS, n = 3. How it is done:
as §1

Entries after “also recorded” stand apart in the source; their conditions may differ.

T4 sequence (Q9NPD5 whole entry): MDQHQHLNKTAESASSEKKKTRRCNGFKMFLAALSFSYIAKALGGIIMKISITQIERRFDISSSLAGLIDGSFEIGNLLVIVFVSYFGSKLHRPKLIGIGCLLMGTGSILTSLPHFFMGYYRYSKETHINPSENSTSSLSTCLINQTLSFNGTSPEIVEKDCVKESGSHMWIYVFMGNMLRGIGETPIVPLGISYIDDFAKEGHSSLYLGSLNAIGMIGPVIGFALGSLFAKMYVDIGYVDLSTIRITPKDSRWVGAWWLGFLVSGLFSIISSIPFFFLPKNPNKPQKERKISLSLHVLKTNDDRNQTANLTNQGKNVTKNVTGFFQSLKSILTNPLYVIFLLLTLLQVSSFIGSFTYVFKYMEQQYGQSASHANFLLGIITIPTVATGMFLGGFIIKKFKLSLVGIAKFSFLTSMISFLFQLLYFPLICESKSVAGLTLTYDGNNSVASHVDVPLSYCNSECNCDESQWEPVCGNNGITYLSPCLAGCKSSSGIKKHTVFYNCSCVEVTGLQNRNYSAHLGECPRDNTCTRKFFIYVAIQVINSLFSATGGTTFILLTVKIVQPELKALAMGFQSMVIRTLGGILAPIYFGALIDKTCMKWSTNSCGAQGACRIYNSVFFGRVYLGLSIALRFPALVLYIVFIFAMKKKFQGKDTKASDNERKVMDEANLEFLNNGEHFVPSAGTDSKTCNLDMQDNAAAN
T3 sequence (Q9Y6L6 whole entry): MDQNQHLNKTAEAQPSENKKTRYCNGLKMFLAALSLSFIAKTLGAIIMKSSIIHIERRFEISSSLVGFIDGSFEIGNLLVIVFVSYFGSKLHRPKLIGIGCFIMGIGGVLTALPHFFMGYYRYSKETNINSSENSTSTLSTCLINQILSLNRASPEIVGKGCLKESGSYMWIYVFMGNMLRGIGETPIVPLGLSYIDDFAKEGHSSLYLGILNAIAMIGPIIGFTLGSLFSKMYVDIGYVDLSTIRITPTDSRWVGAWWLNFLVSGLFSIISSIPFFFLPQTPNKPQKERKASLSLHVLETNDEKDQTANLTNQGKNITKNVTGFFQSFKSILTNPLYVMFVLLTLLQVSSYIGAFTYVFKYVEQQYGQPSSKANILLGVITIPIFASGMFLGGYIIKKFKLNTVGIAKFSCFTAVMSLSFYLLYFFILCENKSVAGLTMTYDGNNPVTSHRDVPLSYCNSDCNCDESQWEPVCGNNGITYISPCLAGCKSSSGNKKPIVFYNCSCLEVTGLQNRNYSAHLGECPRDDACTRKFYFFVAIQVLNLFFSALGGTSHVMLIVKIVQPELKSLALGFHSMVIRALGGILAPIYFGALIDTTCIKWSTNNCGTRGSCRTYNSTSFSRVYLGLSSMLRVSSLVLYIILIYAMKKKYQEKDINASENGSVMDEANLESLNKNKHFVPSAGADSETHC
MATE2-K, sequence (Q86VL8 1-566 isoform Q86VL8-3): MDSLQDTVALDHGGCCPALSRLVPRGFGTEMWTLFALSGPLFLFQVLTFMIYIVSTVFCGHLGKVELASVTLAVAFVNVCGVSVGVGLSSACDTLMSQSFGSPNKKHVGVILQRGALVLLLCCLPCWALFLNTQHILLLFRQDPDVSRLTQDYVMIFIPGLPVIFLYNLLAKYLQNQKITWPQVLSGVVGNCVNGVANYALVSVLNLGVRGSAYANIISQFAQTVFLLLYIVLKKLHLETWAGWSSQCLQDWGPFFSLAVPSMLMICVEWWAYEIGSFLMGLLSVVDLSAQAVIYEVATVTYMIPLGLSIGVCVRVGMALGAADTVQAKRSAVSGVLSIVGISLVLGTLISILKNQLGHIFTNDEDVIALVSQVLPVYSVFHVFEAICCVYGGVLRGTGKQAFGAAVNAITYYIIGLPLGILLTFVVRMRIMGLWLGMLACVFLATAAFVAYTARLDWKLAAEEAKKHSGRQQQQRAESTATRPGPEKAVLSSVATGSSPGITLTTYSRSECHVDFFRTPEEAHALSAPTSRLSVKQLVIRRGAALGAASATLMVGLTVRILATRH

Regarding `CC[C@H](C)[C@@H]1NC(=O)CNC(=O)[C@@H]2Cc3c([nH]c4cc(O)ccc34)[S@+]([O-])C[C@H](NC(=O)CNC1=O)C(=O)N[C@@H](CC(=O)O)C(=O)N1C[C@H](O)C[C@H]1C(=O)N[C@@H]([C@@H](C)[C@@H](O)CO)C(=O)N2` [β-amanitin], in series [1], the “Uptake into HEK293-OCT2 cells compared with HEK293 control cells (transport substrate)” value is given as “not involved in the active transport”. Further, in series [2], the “Concentration in the kidney of amatoxin-intoxicated patients” value was 1017–1391 ng/g kidney, the “Concentration in the liver of amatoxin-intoxicated patients” value is listed as 170.8–3298 ng/g liver, the “Plasma concentrations in amatoxin-intoxicated patients” value is 15.9 to 162 ng/mL and the “Total amount excreted in urine in amatoxin-intoxicated patients” value is 0.05 to 5.21 mg. Besides, in series [3], the “Uptake into HEK293-MATE2-K cells compared with HEK293 control cells (transport substrate)” value is recorded as “not involved in the active transport”. In series [4], the “Reduction in plasma concentration caused by bile drainage” value is more than 70%. Moreover, in series [5], the “Uptake into HEK293-OAT1 cells compared with HEK293 control cells (transport substrate)” value was “not involved in the active transport”. In addition, the “Uptake into HEK293-OATP1B1 cells compared with HEK293 control cells (transport substrate)” value in series [6] is “significantly increased; also recorded: substrate”. Further, the “Uptake into HEK293-OATP1B3 cells compared with HEK293 control cells (transport substrate)” value in series [7] is listed as “significantly increased; also recorded: substrate”.

Turning to α-amanitin [reference compound], the “Uptake into HEK293-OCT2 cells compared with HEK293 control cells (transport substrate)” value in series [1] is “not involved in the active transport”. In addition, in series [2], the “Concentration in the kidney of amatoxin-intoxicated patients” value is given as 122–1719 ng/g kidney, the “Concentration in the liver of amatoxin-intoxicated patients” value was 10–19 ng/g liver, the “Plasma concentrations in amatoxin-intoxicated patients” value is 8 to 190 ng/mL and the “Total amount excreted in urine in amatoxin-intoxicated patients” value is 0.03 to 3.29 mg. In addition, the “Uptake into HEK293-MATE2-K cells compared with HEK293 control cells (transport substrate)” value in series [3] is “not involved in the active transport”. Further, in series [4], the “Reduction in plasma concentration caused by bile drainage” value is given as more than 70%. Also, in series [5], the “Uptake into HEK293-OAT1 cells compared with HEK293 control cells (transport substrate)” value is recorded as “not involved in the active transport”. The “Uptake into HEK293-OATP1B1 cells compared with HEK293 control cells (transport substrate)” value in series [6] is given as “significantly increased”. The “Uptake into HEK293-OATP1B3 cells compared with HEK293 control cells (transport substrate)” value in series [7] was “significantly increased”.

Source of the values: publication PMC9030691, “Toxicokinetics of β-Amanitin in Mice and In Vitro Drug–Drug Interaction Potential” (Pharmaceutics, 2022).
